Earlier results, collected in patent US20040243224A1, “Methods and compositions for inhibiting narrowing in mammalian vascular pathways” (Medtronic Vascular, Inc., priority 2003, published 2004).

Key:
Conditions in all cases: stated as known in the art, no data
[1] = system: laboratory tumor cell lines
Ustilago maydis = system: Ustilago maydis
Tetrahymena furgasoni = system: Tetrahymena furgasoni

SMILES: COc1cc(O)c2c(c1)[C@H]1O[C@@H]1C[C@H](O)[C@H](O)C(=O)/C=C\C[C@H](C)OC2=O [Hypothemycin, hypothemycin]
- anti-tumor activity on laboratory tumor cell lines [1]: exhibits anti-tumor activity
- activity against Ustilago maydis (Ustilago maydis): active
- activity against Tetrahymena furgasoni (Tetrahymena furgasoni): active
